Data as given in patent US12569554B2, “Triterpene saponin analogues” (priority 2017, dated 2026).
Read-outs that look alike come from different tables or passages of the source.

Tests used:
[1] = test system: mice; experiment: Pilot pharmacology/toxicology study: blood chemistry, hematology, histopathology; assay type: in vivo; details: 50 mcg TiterQuil-1055, 20 mcg QS-21, Adacel 2.5 mcg pertussis toxin, alone or combined; for changes in blood chemistry or hematology results: SC days 1 and 15; for liver histopathology, hepatocellular cytoplasmic vacuolization: SC days 1 and 15, sacrificed day 22
Description: (§1) A pharm/tox study was conducted in 7 groups of 5 mice: 1) PBS alone, 2) 50 mcg TiterQuil-1055, 3) 20 mcg QS-21, 4) Adacel 2.5 mcg pertussis toxin (1/5 the human dose), 5) Adacel+QS-21 (20 mcg QS-21), 6) Adacel+TiterQuil-1055 (50 mcg), 7) Adacel+TiterQuil-1055 (50 mcg). Mice were vaccinated SC on days 1 and 15, weighed daily, and bled and sacrificed on day 22, except for group 7 which was sacrificed on day 29. […] Histopathology of 33 different tissues was performed on all mice. Detected abnormalities were restricted to the liver. […] This abnormality was short lived and was no detected in group 7, which was sacrificed one week after groups 1-6.

[2] = Hemolytic assay; assay type: cell-based
Description: (§3) Natural and synthetic QS-21 (SQS-21 or SAPONEX®) and a variety of analogs were tested for hemolytic activity.

[3] = test system: humans; details: cited from earlier work
[4] = assay type: in vivo, mice; details: for body weight loss: 50 mcg TiterQuil-1055, 20 mcg QS-21
Description: (§2) Adacel doses containing 1, 0.3, and 0.1 mcg of pertussis toxin per mouse were administered subcutaneously (SC, with no immunological adjuvant), using 2 vaccinations 4 weeks apart, resulting in a mean of 1,618 mcg, 898 mcg, and 107 mcg respectively of anti-PT antibody per ml of serum drawn 2 weeks after the second vaccination. The 0.1 mcg dose was indistinguishable from unvaccinated controls (96 mcg/ml). A 0.5 mcg dose of Adacel was selected for a pharmacology/toxicology (pharm/tox) study. The serological results for this study are summarized in FIG. 3 of the present application.
as §1

[5] = Companion toxicity study, body mass; assay type: in vivo, mice; details: three days after immunization
Description: as §3

[6] = test system: mice; experiment: Adacel pharm/tox study, serology with TiterQuil-1055 or QS-21; assay type: in vivo; details: for augmentation of antibody levels compared to immunization with Adacel alone: adjuvant given with Adacel
Description: as §2, §1

[7] = Stability at 37° C.; assay type: physicochemical; details: for degraded: after two weeks at 37° C.
Description: as §3

[8] = test system: mice; experiment: Engerix-B immunogenicity, anti-HBsAg antibody; assay type: in vivo
Description: Experiments were conducted with Engerix-B (HBV adult vaccine) in groups of 10 mice. Initially 3 mcg, 1 mcg, 0.3 mcg, 0.1 mcg, and 0.03 mcg Engerix-B doses per mouse were tested.

[9] = Engerix-B study, body weight; assay type: in vivo, mice
[10] = groups of 5 mice, 2 weeks after second SC immunization

## QS-21 [reference compound]
[1]
  changes in blood chemistry or hematology results: No changes
  liver histopathology, hepatocellular cytoplasmic vacuolization: Mild vacuolar changes
[2]
  hemolytic activity: highly hemolytically active
[3]; cancer patients, above it local and systemic side effects
  tolerated dose in cancer patients: 100 to 150 µg
[3]; healthy patients
  maximum dose for healthy patients: ~50 µg
[3]; well (non-cancer) adult and child recipients
  highest practical tolerable dose: 25 to 50 µg
[4]
  body weight loss: 8-9%
[5]; 20 mcg QS-21
  body mass lost on average: 8-10%
[6]; [10]
  augmentation of antibody levels compared to immunization with Adacel alone: 10 fold
[7]
  degraded: 20%

## CC1O[C@@H](OC2C(O)[C@@H](NC(=O)CCCCCCCCCCC(=O)O)C(CO)O[C@H]2OC(=O)[C@]23CCC(C)(C)CC2C2=CCC4C5(C)CC[C@H](O)C(C)(C=O)C5CCC4(C)C2(C)CC3O)C(O)C(O)[C@H]1O[C@@H]1OC[C@@H](O)C(O)C1O (stereo partly shown) [Compound I-4]
[1]
  changes in blood chemistry or hematology results: No changes
  liver histopathology, hepatocellular cytoplasmic vacuolization: No changes at all
[2]
  hemolytic activity: much lower or undetectable hemolytic activity
[8]; 10 mcg TiterQuil-1055 mixed with 0.3 mcg Engerix-B
  serologic effect: no serologic effect
[8]; 30 mcg TiterQuil-1055 mixed with 0.3 mcg Engerix-B
  increase in antibody levels compared to Engerix-B alone: > 6 fold
[8]; 100 mcg TiterQuil-1055 mixed with 0.3 mcg Engerix-B
  increase in antibody levels compared to Engerix-B alone: 5 fold
[8]; TiterQuil-1055 doses above 50 mcg per mouse
  antibody response at higher adjuvant doses: Lack of antibody increase or decreasing responses
[4]; 50 mcg TiterQuil-1055, 20 mcg QS-21, Adacel 2.5 mcg pertussis toxin, alone or combined, SC days 1 and 15, weighed daily
  weight loss: no other mice
[4]
  body weight loss: No weight loss
[9]; 30 mcg TiterQuil-1055 dose
  weight loss: No weight loss
[9]; 100 mcg TiterQuil-1055 dose
  weight loss: 4%
[9]; 300 mcg TiterQuil-1055 dose
  weight loss: 5%
[5]
  body mass gained on average: 5%
[6]; Adacel with TiterQuil-1055, a further 2 weeks later
  antibody levels 2 weeks later: further increased
[6]; groups of 5 mice, 2 weeks after second SC immunization, Adacel alone or Adacel with TiterQuil-1055
  antibody levels: 52,344
[6]; [10]
  augmentation of antibody levels compared to immunization with Adacel alone: 70 fold
[7]
  degraded: without detectable degradation
[7]; compared with QS-21
  stability: increased stability
